Data as given in patent US20250368611A1, “METHOD FOR PREPARING BERAPROST 314-D SODIUM” (YS Life Science Co., Ltd., priority 2024, published 2025).
Entries after “also recorded” stand apart in the source; their conditions may differ.

Legend:
IFN-γ = test: CD19 CAR T-cell / Raji co-culture: IFN-γ in supernatant by TR-FRET; format: cell-based, human
Excerpt: (§1) The impact of CTO1681 on the efficacy of CD19-targeting CAR T-cells in vitro as well as its ability to reduce CRS-inducing pro-inflammatory cytokine levels in the presence of CAR T-cells and tumor cells in vitro were explored. […] CD3 T cells were sorted from one healthy donor PBMCs, stimulated for a short period of time and transduced with CD19 CAR-T lentivirus (LV) containing CD28 and CD3ζ domains. CD19 CAR T-cells were expanded for 6 days and used in the assay. CD19-targeting CD3 T-cells were treated with 5 increasing concentrations of CTO1681 (0.36 nM, 1.8 nM, 9 nM, 45 nM, and 225 nM) or vehicle for 30 minutes, prior to, and during co-culture with CD19+ Raji lymphoma target cells. Media alone, vehicle, and positive control (dexamethasone) wells were included. Following initial treatment, CAR T-cells (Effectors) were co-cultured with fluorescently labeled CD19+ Raji tumor cells (Target cells) at 3 different Effector:Target cell ratios (10:1, 5:1 and 1:1) and treated with 5 different concentrations of CTO1681 or vehicle for 24 hours. Target cells (Raji cells) were fluorescently labelled with CPD (eBioscience™ Cell Proliferation Dye eFluor™) prior to co-culture to distinguish the Raji cells from the effector cells and allow for analysis of target viability by flow cytometry. Following incubation, supernatant was collected and levels of pro-inflammatory cytokines IL-6 and TNF-α were measured by multiplex Luminex assay and […] was measured via time-resolved fluorescence resonance energy transfer (TR-FRET) assay. These cytokines were selected for quantification as they are early cytokines released following CAR T-cell infusion in vivo that causes hyperactivation of the immune system resulting in acute systemic inflammation, CRS, multiorgan failure, and possible death. In addition, flow cytometry was used to measure the level of Raji tumor/target cell death following CAR T treatment across CTO1681 conditions to measure impact of CTO1681 with CAR T-cell efficacy. Co-cultures were stained with viability dye 7-AAD for measuring viability.

IL-6 = test: CD19 CAR T-cell / Raji co-culture: IL-6 in supernatant by multiplex Luminex; format: cell-based, human
Excerpt: as §1

TNF-α = test: CD19 CAR T-cell / Raji co-culture: TNF-α in supernatant by multiplex Luminex; format: cell-based, human
Excerpt: as §1

[1] = Health evaluations in NSG tumor-bearing mice; format: in vivo; conditions: 0.3, 0.2 or 0.15 mg/kg/d BID for 14 days with CAR T-cells
Procedure: Tumor growth after engraftment and subsequent clearance were monitored once weekly (starting on Day 7) using IVIS imaging to detect luciferase signal in living mice. CTO1681 administration began on Day 8, two days before CAR T-cell infusion, with injections twice a day for 14 days. Mice received total daily CTO1681 doses of 0.3 mg/kg/d, 0.2 mg/kg/d, or 0.15 mg/kg/d via two injections (BID). CTO1681 doses were selected based on the pharmacokinetic profile of the drug in mice. Control groups included mice receiving Raji-luc tumor cells without CAR T-cell treatment, mice receiving Raji-luc tumor cells and a CAR T-cell infusion, and mice receiving Raji-luc tumor cells with vehicle treatments. Mice were monitored for body temperature and health evaluations (weight, movement, posture, fur condition, etc.) throughout the entire study.

Raji-luc tumor cells = test: CAR T-cell efficacy in NSG mice bearing Raji-luc tumors (IVIS imaging); format: in vivo; conditions: 0.3, 0.2 or 0.15 mg/kg/d BID for 14 days; Day 15
Procedure: The effects if any, of CTO1681 on CAR T-cell activity in vivo were measured. Human T-cells expressing CD19-CD28-CD3Z CAR construct was used in this experiment. 6-7 week old NSG™ (NOD SCID gamma) mice were engrafted with 1×10^6 luciferase (luc) expressing Raji tumor cells (herein referred to as “Raji-luc” tumor cells) each on Day 1 to allow for tumor growth over a 7-day period prior to the commencement of the treatment. CAR T-cell infusion was performed intravenously via lateral tail vein on (5×10^6 CD19 CAR T-cells generated from healthy donors). NSG mice are severely immunodeficient, which facilitates ready tumor engraftment and subsequent clearance due to CAR T-cells can be measured. Tumor growth after engraftment and subsequent clearance were monitored once weekly (starting on Day 7) using IVIS imaging to detect luciferase signal in living mice. CTO1681 administration began on Day 8, two days before CAR T-cell infusion, with injections twice a day for 14 days. Mice received total daily CTO1681 doses of 0.3 mg/kg/d, 0.2 mg/kg/d, or 0.15 mg/kg/d via two injections (BID). CTO1681 doses were selected based on the pharmacokinetic profile of the drug in mice. […] Mice were monitored for body temperature and health evaluations (weight, movement, posture, fur condition, etc.) throughout the entire study.

[2] = test system: CD19+ Raji lymphoma target cells; test: CD19 CAR T-cell killing of Raji target cells, flow cytometry (7-AAD); format: cell-based, human; conditions: all concentrations 0.36-225 nM; 24 hours co-culture
Excerpt: The impact of CTO1681 on the efficacy of CD19-targeting CAR T-cells in vitro as well as its ability to reduce CRS-inducing pro-inflammatory cytokine levels in the presence of CAR T-cells and tumor cells in vitro were explored. […] CD3 T cells were sorted from one healthy donor PBMCs, stimulated for a short period of time and transduced with CD19 CAR-T lentivirus (LV) containing CD28 and CD3ζ domains. CD19 CAR T-cells were expanded for 6 days and used in the assay. CD19-targeting CD3 T-cells were treated with 5 increasing concentrations of CTO1681 (0.36 nM, 1.8 nM, 9 nM, 45 nM, and 225 nM) or vehicle for 30 minutes, prior to, and during co-culture with CD19+ Raji lymphoma target cells. Media alone, vehicle, and positive control (dexamethasone) wells were included. […] Following incubation, supernatant was collected and levels of pro-inflammatory cytokines IL-6 and TNF-α were measured by multiplex Luminex assay and […] was measured via time-resolved fluorescence resonance energy transfer (TR-FRET) assay. These cytokines were selected for quantification as they are early cytokines released following CAR T-cell infusion in vivo that causes hyperactivation of the immune system resulting in acute systemic inflammation, CRS, multiorgan failure, and possible death. […]

[3] = 10:1 ratio of Effectors to Target cells, 0.36-225 nM, 24 hours
[4] = CAR T-cells:Raji cells 10:1, 0.36-225 nM
[5] = across three ratios of CAR-T cells to Raji cells (10:1, 5:1, 1:1)

## CC#CC[C@H](C)[C@H](O)/C=C/[C@@H]1[C@H]2c3cccc(CCCC(=O)[O-])c3O[C@H]2C[C@H]1O.[Na+] [CTO1681, sodium 4-((1R,2R,3aS,8bS)-2-hydroxy-1-((3S,4S,E)-3-hydroxy-4-methyloct-1-en-6-yn-1-yl)-2,3,3a,8b-tetrahydro-1H-cyclopenta[b]benzofuran-5-yl)butanoate]
IFN-γ; [3]
  IFN-γ: ~26%
IFN-γ; [4]
  Effect on IFN-γ levels: dose-dependently reduced; also recorded: dose-dependently lowers
IFN-γ; [5]
  IFN-γ: reduction
IL-6; [3]
  Maximum reduction IL-6: ~23%
IL-6; [4]
  Effect on IL-6 levels: dose-dependently reduced; also recorded: dose-dependently lowers
IL-6; [5]
  IL-6 with increasing concentrations: reduction
TNF-α; [3]
  Maximum reduction TNF-α: approximately 50%
TNF-α; [4]
  Effect on TNF-α levels: dose-dependently reduced; also recorded: dose-dependently lowers
TNF-α; [5]
  TNF-α with increasing concentrations: reduction
[1]
  Clinical morbidities, including weight loss or limb movement: did not cause any increase
Raji-luc tumor cells
  Effect on CD19 CAR T-cell activity (reduction of tumor burden, luciferase signal): did not affect; also recorded: does not interfere
[2]
  Effect on tumor/target cell killing by CD19-directed CAR T-cells: did not impact or interfere; also recorded: absence of an effect
